Data on one molecule can be found in US20240316249A1, “INJECTION FORMULATION COMPOSITION FOR USE AS FILLER OR DRUG CARRIER THROUGH CLICK CHEMISTRY REACTION” (AJOU UNIVERSITY INDUSTRY-ACADEMIC COOPERATION FOUNDATION, priority 2018, published 2024).

“Also recorded” adds a separate entry of the source.

This data set is described as follows: Amount of doxorubicin in tumor and organs after injection. The format is in vivo, mice. The protocol:
To perform a pharmacokinetic experiment, mice were sacrificed on day 1, day 6, day 12, and day 18. Organs (tumors, the intestines, lungs, kidneys, liver, spleen, and heart) were immediately acquired and photographed (FIG. 12). To measure the amount of doxorubicin remaining in each organ, each organ was homogenized in a 0.3N HCl/70% ethanol solution at 25,000 rpm to 30,000 rpm using a T 10 basic ULTRA-TURRAX Homogenizer (IKA-Werke GmbH & Co., Staufen, Germany), followed by incubation at 37° C. for 15 minutes. Each uniformly mixed sample was mixed with the same volume of 40% ZnSO4 and a mobile phase, and incubated again at 37° C. for 15 minutes. When the incubation was completed, each sample was centrifuged at 2,000 rpm for 10 minutes, and the amount of doxorubicin contained in the supernatant was calculated by referring to the standard calibration curve. The amount of doxorubicin contained in each organ was measured by a UV-visible Spectrophotometer (V-770, JASCO Inc., Tokyo, Japan) (FIG. 13).

Regarding `COc1cccc2c1C(=O)c1c(O)c3c(c(O)c1C2=O)C[C@@](O)(C(=O)CO)C[C@@H]3O[C@H]1C[C@H](N)[C@H](O)[C@H](C)O1` [Dox, doxorubicin], the “occurrence of side effects due to the anticancer agent” value (Dox repeat injection (0.1 mg Dox)) was “induces various side effects”. For the same molecule, the “distribution of anticancer agent in tumor and organs” value (Dox repeat injection (0.1 mg Dox), compared to injection of doxorubicin alone (FIG. 13)) was “a large amount of anticancer agent is present in a tumor; also recorded: a large amount of anticancer agent remains in various organs”; the “distribution of anticancer agent in tumor and organs” value (single injection 0.4 mg Dox, day 1, 6, 12, 18 (FIG. 13)) is on record as “distributed more rapidly to various organs than a tumor”.
